# Assay results: patent US9255100B2 (BAYER INTELLECTUAL PROPERTY GMBH, priority 2010, dated 2016)
# Biological target: T1, N-terminally GST-tagged human full length recombinant Mps-1 kinase (Homo sapiens, UniProt P33981)
# T1 construct: N-terminally GST-tagged human full length recombinant Mps-1 kinase; purchased Invitrogen, Karslruhe, Germany PV4071
# T1 sequence (P33981 1-857): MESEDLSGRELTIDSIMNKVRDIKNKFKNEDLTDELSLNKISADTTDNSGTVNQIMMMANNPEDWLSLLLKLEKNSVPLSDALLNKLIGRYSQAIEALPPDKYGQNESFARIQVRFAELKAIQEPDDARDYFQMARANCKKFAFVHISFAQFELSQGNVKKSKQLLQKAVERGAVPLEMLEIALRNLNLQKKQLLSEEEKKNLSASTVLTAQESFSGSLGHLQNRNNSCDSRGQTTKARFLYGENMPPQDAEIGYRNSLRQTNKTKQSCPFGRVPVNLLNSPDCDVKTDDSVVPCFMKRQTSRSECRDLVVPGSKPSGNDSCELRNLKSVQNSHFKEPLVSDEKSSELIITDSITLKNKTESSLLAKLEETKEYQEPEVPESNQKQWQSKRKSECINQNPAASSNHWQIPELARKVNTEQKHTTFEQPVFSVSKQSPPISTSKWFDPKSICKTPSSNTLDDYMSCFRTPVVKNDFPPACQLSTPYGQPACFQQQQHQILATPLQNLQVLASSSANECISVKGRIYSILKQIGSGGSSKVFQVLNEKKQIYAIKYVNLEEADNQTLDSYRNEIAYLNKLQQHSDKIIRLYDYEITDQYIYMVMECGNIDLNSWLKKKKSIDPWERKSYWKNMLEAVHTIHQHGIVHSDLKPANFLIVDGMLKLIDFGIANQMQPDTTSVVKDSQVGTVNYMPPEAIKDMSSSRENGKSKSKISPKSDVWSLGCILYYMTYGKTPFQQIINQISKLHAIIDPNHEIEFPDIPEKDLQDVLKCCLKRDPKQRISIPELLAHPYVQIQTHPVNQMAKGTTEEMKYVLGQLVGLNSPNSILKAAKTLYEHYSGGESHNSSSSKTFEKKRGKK
# Test: Mps-1 kinase assay (TR-FRET)
# Assay type: biochemical
# Conditions: Mps1 IC50 [nM], 10 μM ATP, 1 μM peptide substrate, 60 min at 22° C.
# Summary of the method: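 Inhibition of Mps-1 (N-terminal GST fusion, full length) toward a biotinylated peptide is read as Eu-to-XLent TR-FRET. Enzyme level, around 1 nM final, follows lot activity.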
row,IC50 [nM],SMILES
1,0.2,"Cc1cc(-c2cnc3c(NCC(C)(C)O)cc(Nc4cccc(F)c4F)nn23)ccc1C(=O)NC1CC1 [Example 352, N-cyclopropyl-4-{6-[(2,3-difluorophenyl)amino]-8-[(2-hydroxy-2-methylpropyl)amino]imidazo[1,2-b]pyridazin-3-yl}-2-methylbenzamide]"
2,2.3,"CCCSc1cc(NCC(C)C)c2ncc(-c3ccc(C(=O)NC4CC4)c(C)c3)n2n1 [Example 201, N-cyclopropyl-2-methyl-4-{8-[(2-methylpropyl)amino]-6-(propylsulfanyl)imidazo[1,2-b]pyridazin-3-yl}benzamide]"
3,0.1,"Cc1cc(-c2cnc3c(NCCN4CCOCC4)cc(Oc4ccc(F)c(F)c4)nn23)ccc1C(=O)NC1CC1 [Example 540, N-cyclopropyl-4-[6-(3,4-difluoro-phenoxy)-8-{[2-(morpholin-4-yl)ethyl]amino}imidazo[1,2-b]pyridazin-3-yl]-2-methyl-benzamide]"
4,0.4,"COc1cc(Nc2cc(NCCC(F)(F)F)c3ncc(-c4ccc(C(=O)NC5CC5)c(C)c4)n3n2)ccc1F [Example 422, N-cyclopropyl-4-{6-[(4-fluoro-3-methoxyphenyl)amino]-8-[(3,3,3-trifluoropropyl)amino]imidazo[1,2-b]pyridazin-3-yl}-2-methylbenzamide]"
5,0.4,"Cc1cc(-c2cnc3c(NCCC(F)(F)F)cc(Oc4ccc(OC(C)C)cc4)nn23)ccc1C(=O)NC1CC1 [Example 257, N-cyclopropyl-4-{6-(4-isopropoxyphenoxy)-8-[(3,3,3-trifluoropropyl)amino]imidazo[1,2-b]pyridazin-3-yl}-2-methylbenzamide]"
6,< 0.1,"Cc1cc(Sc2cc(NCC(C)(C)O)c3ncc(-c4ccc(C(=O)NC5CC5)c(C)c4)n3n2)ccc1O [Example 63, N-cyclopropyl-4-{6-[(4-hydroxy-3-methylphenyl)sulfanyl]-8-[(2-hydroxy-2-methylpropyl)amino]imidazo[1,2-b]pyridazin-3-yl}-2-methylbenzamide]"
7,0.4,"Cc1cc(-c2cnc3c(NCCn4cccn4)cc(Oc4cccc(F)c4)nn23)ccc1C(=O)NC1CC1 [Example 515, N-cyclopropyl-4-[6-(3-fluoro-phenoxy)-8-{[2-(1H-pyrazol-1-yl)ethyl]amino}imidazo[1,2-b]pyridazin-3-yl]-2-methyl-benzamide]"
8,0.1,"Cc1cc(-c2cnc3c(NCCC(F)(F)F)cc(Nc4cccc(F)c4F)nn23)ccc1C(=O)NC1CC1 [Example 380, N-cyclopropyl-4-{6-[(2,3-difluorophenyl)amino]-8-[(3,3,3-trifluoropropyl)amino]imidazo[1,2-b]pyridazin-3-yl}-2-methylbenzamide]"
9,25.5,"Cc1cc(-c2cnc3c(NCC(C)(C)O)cc(SCCN4CCOCC4)nn23)ccc1C(=O)NC1CC1 [Example 239, N-cyclopropyl-4-(8-[(2-hydroxy-2-methylpropyl)amino]-6-{[2-(morpholin-4-yl)ethyl]sulfanyl}imidazo[1,2-b]pyridazin-3-yl)-2-methylbenzamide]"
10,3.7,"Cc1cc(-c2cnc3c(NCC(C)(C)O)cc(Sc4c(F)cccc4F)nn23)ccc1C(=O)NC1CC1 [Example 218, N-cyclopropyl-4-{6-[(2,6-difluorophenyl)sulfanyl]-8-[(2-hydroxy-2-methylpropyl)amino]imidazo[1,2-b]pyridazin-3-yl}-2-methylbenzamide]"
11,0.3,"Cc1cc(-c2cnc3c(NCCC(F)(F)F)cc(Sc4ccc(F)cc4)nn23)ccc1C(=O)NC1CC1 [Example 250, N-cyclopropyl-4-{6-[(4-fluorophenyl)sulfanyl]-8-[(3,3,3-trifluoropropyl)amino]imidazo[1,2-b]pyridazin-3-yl}-2-methylbenzamide]"
12,0.1,"CNC(=O)c1ccc(-c2cnc3c(NCCC(F)(F)F)cc(Oc4ccc(O)cc4F)nn23)cc1C [Example 560, 4-{6-(2-fluoro-4-hydroxyphenoxy)-8-[(3,3,3-trifluoropropyl)amino]imidazo[1,2-b]pyridazin-3-yl}-N,2-dimethylbenzamide]"
13,< 1,"CC(C)CNc1cc(-c2ccc3nccn3c2)nn2c(-c3ccc(C(=O)NC4CC4)cc3)cnc12 [Example 145, N-cyclopropyl-4-{6-(imidazo[1,2-a]pyridin-6-yl)-8-[(2-methylpropyl)amino]imidazo[1,2-b]pyridazin-3-yl}benzamide]"
14,0.4,"Cc1cc(-c2cnc3c(NCC(C)(C)O)cc(Nc4cccc(O)c4)nn23)ccc1C(=O)NC1CC1 [Example 446, N-cyclopropyl-4-{8-[(2-hydroxy-2-methylpropyl)amino]-6-[(3-hydroxyphenyl)amino]imidazo[1,2-b]pyridazin-3-yl}-2-methylbenzamide]"
15,0.1,"COc1ccc(Cc2cc(NCCC(F)(F)F)c3ncc(-c4ccc(C(=O)NC5CC5)c(C)c4)n3n2)cc1F [Example 483, N-cyclopropyl-4-{6-(3-fluoro-4-methoxybenzyl)-8-[(3,3,3-tri-fluoropropyl)amino]imidazo [1,2-b]pyridazin-3-yl}-2-methylbenzamide]"
16,< 1,"Cc1cc(-c2cnc3c(NCCC(F)(F)F)cc(-c4ccc(F)cc4)nn23)ccc1C(=O)NC1CC1 [Example 28, N-cyclopropyl-4-{6-(4-fluorophenyl)-8-[(3,3,3-trifluoropropyl)amino]imidazo[1,2-b]pyridazin-3-yl}-2-methylbenzamide]"
17,< 1,"CCNC(=O)c1ccc(-c2cnc3c(NCCC(F)(F)F)cc(Oc4cc(F)ccc4C)nn23)cc1C [Example 603, N-ethyl-4-{6-(5-fluoro-2-methylphenoxy)-8-[(3,3,3-trifluoropropyl)a-mino]imidazo[1,2-b]pyridazin-3-yl}-2-methylbenzamide]"
18,3.8,"CNC(=O)c1ccc(-c2cnc3c(NCCOC)cc(Oc4ccc(F)c(F)c4)nn23)cc1C [Example 582, 4-{6-(3,4-difluorophenoxy)-8-[(2-methoxyethyl)a-mino]imidazo[1,2-b]pyridazin-3-yl}-N,2-dimethylbenzamide]"
19,0.2,"Cc1cc(-c2cnc3c(NCC4CC[S+]([O-])CC4)cc(Oc4ccc(Cl)cc4)nn23)ccc1C(=O)NC1CC1 (mixture of isomers) [Example 294B, 4-[6-(4-chlorophenoxy)-8-({[(cis/trans)-1-oxidotetrahydro-2H-thiopyran-4-yl]methyl}amino)imidazo[1,2-b]pyridazin-3-yl]-N-cyclopropyl-2-methylbenzamide]"
20,1.7,"CNC(=O)c1ccc(-c2cnc3c(NCCN4CCOCC4)cc(Oc4cc(F)ccc4C)nn23)cc1C [Example 566, 4-[6-(5-fluoro-2-methylphenoxy)-8-{[2-(morpholin-4-yl)ethyl]amino}imidazo[1,2-b]pyridazin-3-yl]-N,2-dimethylbenzamide]"
21,61.1,"CC=C(C)c1cc(NCC(C)(C)O)c2ncc(-c3ccc(-c4cnc(C5CC5)[nH]4)cc3)n2n1 (mixture of isomers) [Example 1, 1-({6-[(2E/Z)-But-2-en-2-yl]-3-[4-(2-cyclopropyl-1H-imidazol-5-yl)phenyl]imidazo[1,2-b]pyridazin-8-yl}amino)-2-methylpropan-2-ol]"
22,0.5,"Cc1cc(-c2cnc3c(NCC4CCSCC4)cc(Oc4ccc(Cl)cc4)nn23)ccc1C(=O)NC1CC1 [Example 292, 4-{6-(4-chlorophenoxy)-8-[(tetrahydro-2H-thiopyran-4-ylmethyl)amino]imidazo[1,2-b]pyridazin-3-yl}-N-cyclopropyl-2-methylbenzamide]"
